In the assay the test system is human embryonic stem cell derived neural stem cells (NSCs). The assay is described as follows: Neural stem cell proliferation assay (neurogenesis assay, ATP/CellTiterGlo readout). The assay is classed as cell-based. The conditions noted are these: 4 days incubation. Here is the method: Neural Stem Cell Proliferation Assay
Neurogenic properties of small molecules are determined based on the proliferation of human embryonic stem cell derived neural stem cells (NSCs) which were derived via a dual smad inhibition as previously described (Chambers, S. M., et al., Highly efficient neural conversion of human ES and iPS cells by dual inhibition of SMAD signaling, Nature biotechnology, 2009. 27(3): p. 275-80.)
Compounds respond is measured by the increase in cells based on ATP levels (Promega:CellTiterGlo®) after an incubation period of 4 days.
NSCs are thawed and expanded over 3 passages. On the 14th day, NSCs are seeded in Polyornithin/Laminin coated 384 well plates at a cell density of 21′000 cells/cm^2 in a media volume of 38 μl.
4 hours after cell seeding, compound solutions are added at a volume of 2 μl. Stock solutions of the compounds (water, 5% DMSO) are diluted to obtain a dose response (11 points, dilution factor is 2), ranging from 8 μM to 8 nM. Controls are run to consistently determine the neurogenic properties of the cells:
Negative (neutral) control is cell culture Media (final DMSO concentration: 0.25%).
1. cell culture Media+100 ng/ml FGF2 (final DMSO concentration: 0.1%)
2. cell culture Media+20 ng/ml EGF (final DMSO concentration: 0.1%)
3. cell culture Media+100 ng/ml Wnt3a (final DMSO concentration: 0.1%)
After 4 days incubation at 37° C., 5% CO2, the amount of ATP per well is quantified. The ATP concentration is proportional to the cell number. ATP is quantified by using the Promega CellTiterGlo® kit. The CellTiterGlo® reagents contain a cell lysis buffer, a thermo stable luciferase (UltraGlo™ recombinant luciferase), magnesium and luciferin. Luciferin reacts with ATP producing oxyluciferin, AMP and light. The luminescence signal is proportional to the ATP content.
The value of negative (neutral) control is determined for each assay plate by taking the average of 16 negative control wells. The neurogenic compound response is calculated for each compound as (compound/Negative Control)*100.
The values of EC150 from the dose response curve are determined for each test compound. The EC150 is the compound concentration at which 150% activity of control (100%) is reached.
On the technique in general: ATP-based viability assays read luminescence as a measure of living cells.

The mark [1] stands for this setting: Homo sapiens, Neural stem cell, 96 h, Table 1, novel compounds, concentration at which 150% activity of control (100%) is reached.

This is an account of results in patent publication US9586903B2, “Isoquinoline derivatives” (Hoffmann-La Roche Inc., priority 2013, dated 2017).

In the case of `O=C(NCc1ccccc1)c1ccc2cncc(-c3ccncc3)c2c1` [Example 1, N-Benzyl-4-(pyridin-4-yl)isoquinoline-6-carboxamide], the EC (150% of control) under setting [1] stood at 0.07 µM.
In turn, `O=C(NCc1ccccc1)c1ccc2cncc(-c3ccc(Cl)cc3)c2c1` [Example 2, N-benzyl-4-(4-chlorophenyl)isoquinoline-6-carboxamide] displayed an EC (150% of control) under setting [1] of 0.09 µM.
`O=C(c1ccc2cncc(-c3ccc(Cl)cc3)c2c1)N1CCS(=O)(=O)CC1` [Example 3, [4-(4-Chloro-phenyl)-isoquinolin-6-yl]-(1,1-dioxo-thiomorpholin-4-yl)-methanone] returned an EC (150% of control) under setting [1] of 0.16 µM.
The compound `CC(C)(C)CNC(=O)c1ccc2cncc(-c3ccc(Cl)cc3)c2c1` [Example 4, 4-(4-Chloro-phenyl)-isoquinoline-6-carboxylic acid (2,2-dimethyl-propyl)-amide] showed an EC (150% of control) under setting [1] of 0.19 µM.
On to `O=C(NC1CC1)c1ccc2cncc(-c3ccc(Cl)cc3)c2c1` [Example 5, 4-(4-Chlorophenyl)-N-cyclopropylisoquinoline-6-carboxamide], for which the EC (150% of control) under setting [1] amounted to 0.03 µM.
The same measure, in the same setting: next, `O=C(NCC1CC1)c1ccc2cncc(-c3ccc(Cl)cc3)c2c1` [Example 6, 4-(4-Chlorophenyl)-N-(cyclopropylmethyl)isoquinoline-6-carboxamide]: 0.19 µM; `CS(=O)(=O)CCNC(=O)c1ccc2cncc(-c3ccc(Cl)cc3)c2c1` [Example 7, 4-(4-Chlorophenyl)-N-(2-(methylsulfonyl)ethyl)isoquinoline-6-carboxamide]: 0.07 µM.
Same read-out and setting: the result for `O=C(NCc1cccnc1)c1ccc2cncc(-c3ccc(Cl)cc3)c2c1` [Example 8, 4-(4-Chlorophenyl)-N-(pyridin-3-ylmethyl)isoquinoline-6-carboxamide] reads 0.08 µM; that for `CS(=O)(=O)c1ccc(CNC(=O)c2ccc3cncc(-c4ccc(Cl)cc4)c3c2)cc1` [Example 9, 4-(4-chlorophenyl)-N-(4-(methylsulfonyl)benzyl)isoquinoline-6-carboxamide], 0.85 µM.
On to `COc1ccccc1CNC(=O)c1ccc2cncc(-c3ccc(Cl)cc3)c2c1` [Example 10, 4-(4-Chlorophenyl)-N-(2-methoxybenzyl)isoquinoline-6-carboxamide], for which the EC (150% of control) under setting [1] is 0.09 µM.
Compound `O=C(NCc1ccccn1)c1ccc2cncc(-c3ccc(Cl)cc3)c2c1` [Example 11, 4-(4-Chlorophenyl)-N-(pyridin-2-ylmethyl)isoquinoline-6-carboxamide] came in with an EC (150% of control) under setting [1] of 0.09 µM.
On the same count and under the same terms, next, `CS(=O)(=O)c1cccc(CNC(=O)c2ccc3cncc(-c4ccc(Cl)cc4)c3c2)c1` [Example 12, 4-(4-Chlorophenyl)-N-(3-(methylsulfonyl)benzyl)isoquinoline-6-carboxamide]: 0.1 µM; `O=C(Nc1ccccc1)c1ccc2cncc(-c3ccc(Cl)cc3)c2c1` [Example 13, 4-(4-Chlorophenyl)-N-phenylisoquinoline-6-carboxamide]: 0.71 µM.
Turning to `O=C(NCC(F)(F)F)c1ccc2cncc(-c3ccc(Cl)cc3)c2c1` [Example 14, 4-(4-Chlorophenyl)-N-(2,2,2-trifluoroethyl)isoquinoline-6-carboxamide], under setting [1], the EC (150% of control) was 0.05 µM.
For `CC(C)NC(=O)c1ccc2cncc(-c3ccc(Cl)cc3)c2c1` [Example 15, 4-(4-Chlorophenyl)-N-isopropylisoquinoline-6-carboxamide], under setting [1], the EC (150% of control) was found to be 0.98 µM.
As for `O=C(NC1CCOC1)c1ccc2cncc(-c3ccc(Cl)cc3)c2c1` (stereo not shown) [Example 16, 4-(4-Chlorophenyl)-N-(tetrahydrofuran-3-yl)isoquinoline-6-carboxamide], the EC (150% of control) under setting [1] was found to be 0.76 µM.
For `CC(C)(CO)NC(=O)c1ccc2cncc(-c3ccc(Cl)cc3)c2c1` [Example 17, 4-(4-Chlorophenyl)-N-(1-hydroxy-2-methylpropan-2-yl)isoquinoline-6-carboxamide], the EC (150% of control) under setting [1] is 2.5 µM.
Consider `O=C(c1ccc2cncc(-c3ccc(Cl)cc3)c2c1)N1CCOCC1` [Example 18, (4-(4-Chlorophenyl)isoquinolin-6-yl)(morpholino)methanone], for which, under setting [1], the EC (150% of control) was found to be 0.38 µM.
In the case of `CN1CCN(C(=O)c2ccc3cncc(-c4ccc(Cl)cc4)c3c2)CC1` [Example 19, (4-(4-Chlorophenyl)isoquinolin-6-yl)(4-methylpiperazin-1-yl)methanone], under setting [1], the EC (150% of control) is 0.11 µM.
`CC1(CNC(=O)c2ccc3cncc(-c4ccc(Cl)cc4)c3c2)CCC(=O)N1` (stereo not shown) [Example 20, 4-(4-Chlorophenyl)-N-((2-methyl-5-oxopyrrolidin-2-yl)methyl)isoquinoline-6-carboxamide] yielded an EC (150% of control) under setting [1] of 0.18 µM.
As to `CN(CC1CC1)C(=O)c1ccc2cncc(-c3ccc(Cl)cc3)c2c1` [Example 21, 4-(4-Chlorophenyl)-N-(cyclopropylmethyl)-N-methylisoquinoline-6-carboxamide], under setting [1], the EC (150% of control) was 0.21 µM.
Under setting [1], `O=C(c1ccc2cncc(-c3ccc(Cl)cc3)c2c1)N1CCC(O)C1` (stereo not shown) [Example 22, (4-(4-Chlorophenyl)isoquinolin-6-yl)(3-hydroxypyrrolidin-1-yl)methanone] yielded an EC (150% of control) of 0.28 µM.
The same measure, in the same setting: the result for `CC(C)(C)NC(=O)c1ccc2cncc(-c3ccc(Cl)cc3)c2c1` [Example 23, N-tert-Butyl-4-(4-chlorophenyl)isoquinoline-6-carboxamide] reads 0.73 µM; that for `O=C(NCCC(F)(F)F)c1ccc2cncc(-c3ccc(Cl)cc3)c2c1` [Example 24, 4-(4-Chlorophenyl)-N-(3,3,3-trifluoropropyl)isoquinoline-6-carboxamide], 0.06 µM; that for `CS(=O)(=O)NNC(=O)c1ccc2cncc(-c3ccc(Cl)cc3)c2c1` [Example 25, N′-(4-(4-Chlorophenyl)isoquinoline-6-carbonyl)methanesulfonohydrazide], 0.02 µM.
Take `Cn1cc(NC(=O)c2ccc3cncc(-c4ccc(Cl)cc4)c3c2)cn1` [Example 26, 4-(4-Chlorophenyl)-N-(1-methyl-1H-pyrazol-4-yl)isoquinoline-6-carboxamide]: the EC (150% of control) under setting [1] was found to be 0.32 µM.
Under setting [1], `CC(NC(=O)c1ccc2cncc(-c3ccc(Cl)cc3)c2c1)c1cccc(S(C)(=O)=O)c1` (stereo not shown) [Example 27, 4-(4-Chlorophenyl)-N-(1-(3-(methylsulfonyl)phenyl)ethyl)isoquinoline-6-carboxamide] had an EC (150% of control) of 0.79 µM.
`CN(NC(=O)c1ccc2cncc(-c3ccc(Cl)cc3)c2c1)S(C)(=O)=O` [Example 28, N′-(4-(4-Chlorophenyl)isoquinoline-6-carbonyl)-N-methylmethanesulfonohydrazide] registered an EC (150% of control) under setting [1] of 0.39 µM.
In the case of `NC(=O)c1ccc2cncc(C3=CCOCC3)c2c1` [Example 29, 4-(3,6-Dihydro-2H-pyran-4-yl)isoquinoline-6-carboxamide], under setting [1], the EC (150% of control) was 0.14 µM.
Under setting [1], `N#Cc1ccc(-c2cncc3ccc(C(N)=O)cc23)cc1` [Example 30, 4-(4-Cyanophenyl)isoquinoline-6-carboxamide] displayed an EC (150% of control) of 0.03 µM.
As for `NC(=O)c1ccc2cncc(-c3ccc(Cl)cc3Cl)c2c1` [Example 31, 4-(2,4-Dichlorophenyl)isoquinoline-6-carboxamide], the EC (150% of control) under setting [1] stood at 0.06 µM.
Under setting [1], `NC(=O)c1ccc2cncc(-c3ccc(Cl)nc3)c2c1` [Example 32, 4-(6-Chloropyridin-3-yl)isoquinoline-6-carboxamide] came in with an EC (150% of control) of 0.02 µM.
`NC(=O)c1ccc2cncc(-c3ccc(Cl)cc3)c2c1` [Example 33, 4-(4-Chlorophenyl)isoquinoline-6-carboxamide]: the EC (150% of control) (Table 2, known compounds) came to 0.01 µM.
For `NC(=O)c1ccc2cncc(-c3ccc(C(F)(F)F)cc3)c2c1` [Example 34, 4-(4-(Trifluoromethyl)phenyl)isoquinoline-6-carboxamide], the EC (150% of control) (Table 2, known compounds) turned out to be 0.02 µM.
